Tested on: wound site
Assay: Hydroxyproline (OHP) content of subcutaneous PVA sponges fed by mini-osmotic pump at a dorsal skin incision, index of wound reparative collagen accumulation
Assay type: in vivo, rats
Conditions: for OHP (collagen synthesis): day 14 post-wounding, mean±SEM
Experimental: (§1) Twenty-eight (28) male adult rats were obtained from a commercial breeder. Rats were housed individually in stainless steel cages at a constant temperature (25°±1° C.) and relative humidity (40-50%). The cages were kept in a room with a twelve-hour light-twelve-hour dark cycle. All animals were allowed at least one week of acclimatization to the laboratory conditions prior to use in the experiments. During this time, they were fed a standard laboratory chow and drank tap water ad libitum.
After the period of acclimatization, the rats were randomly placed into four groups, seven rats per group. Under pentobarbital anesthesia, their backs were shaved and scrubbed with an organic iodine solution and a dorsal skin incision was made. Subcutaneously at the skin incision, a mini-osmotic pump (model 2002, 0.5 μl/hr, Alzet Co.) attached to a polyvinyl alcohol sponge was inserted. Pumps were filled either with PBS or various solutions of arginine in PBS as indicated on Table 1. The rats tolerated the procedure well and recovered uneventfully.
The 1M solution delivers 2 mg/animal/day into the sponge. On the fourteenth day post-wounding, rats were sacrificed with an overdose of pentobarbital. The pelt containing the healing scar was excised. The PVA sponges were removed, carefully cleared of surrounding tissue and frozen at −20° C. for subsequent determination of hydroxyproline content as an index of wound reparative collagen accumulation using the method of Woessner. See J. Woessner, Determination of Hydroxproline in Tissue and Protein Samples Containing Small Proportions of this Amino Acid, Biochem. Biophys., Vol.93, p. 440 (1961).
as §1, with “Twenty (20)” for “Twenty-eight (28)”, “As in Experimental Example 1, rats” for “Rats”, “twelve hour light-twelve hour” for “twelve-hour light-twelve-hour”
After the period of acclimatization, the rats were randomly placed into two groups of ten rats. Under pentobarbital anesthesia, the rats' backs were shaved and scrubbed with an organic iodine solution and a dorsal skin incision was made. As in Experimental Example 1, a mini-osmotic pump (model 2002, 0.5 μl/hr, Alzet Co.) attached to a polyvinyl alcohol sponge was inserted subcutaneously at the incision site. Pumps were filled either with PBS or a solution of 1M arginine in PBS as indicated on Table 3. The rats tolerated the procedure well and recovered uneventfully.
as §1, with “Twenty-one (21)” for “Twenty-eight (28)”, “As in Example Experiments 1 and 2, rats” for “Rats”, “twelve hour light-twelve hour” for “twelve-hour light-twelve-hour”
After the period of acclimatization, the rats were randomly placed into two groups, eight (8) rats were placed into Group 1 and treated with PBS only and thirteen (13) rats were placed into Group 2 and treated with 1M omithine in PBS. Under pentobarbital anesthesia, the rats' backs were shave and scrubbed with an organic iodine solution and a dorsal skin incision was made. Subcutaneously at the skin incision, a mini-osmotic pump (model 2002, 0.5 μl/hr, Alzet Co.) attached to a polyvinyl alcohol sponge was inserted. The mini-osmotic pumps were filled either with PBS or a solution of 1M omithine in PBS as indicated on Table 5 below. The rats tolerated the procedure well and recovered uneventfully. […]

Row | Compound | increase in collagen biosynthesis accumulation compared to the PBS (control) group (Experimental Example 1, arginine 0.01M) | OHP (collagen synthesis) (Experimental Example 1, arginine 0.01 M in PBS by mini-osmotic pump, PBS control 569 ± 27) | increase in collagen biosynthesis accumulation compared to the PBS (control) group (Experimental Example 1, arginine 0.1M) | OHP (collagen synthesis) (Experimental Example 1, arginine 0.1 M in PBS by mini-osmotic pump, PBS control 569 ± 27) | increase in collagen biosynthesis accumulation compared to the PBS (control) group (Experimental Example 1, arginine 1M) | OHP (collagen synthesis) (Experimental Example 1, arginine 1 M in PBS by mini-osmotic pump (2 mg/animal/day), PBS control 569 ± 27) | increase in collagen biosynthesis accumulation compared to the PBS (control) group (Experimental Example 2, arginine 1M) | OHP (collagen synthesis) (Experimental Example 2, arginine 1 M in PBS by mini-osmotic pump (2 mg/animal/day), PBS control 574 ± 43) | increase in collagen biosynthesis accumulation compared to the PBS (control) group (Experimental Example 3, ornithine 1M) | OHP (collagen synthesis) (Experimental Example 3, ornithine 1 M in PBS by mini-osmotic pump, PBS control 588 ± 45)
1 | N=C(N)NCCC[C@H](N)C(=O)O [Arginine, arginine] | ≥ 10% | 633 ± 54 μg/100 mg sponge | ≥ 10% | 698 ± 74 μg/100 mg sponge | over 60% | 928 ± 55 μg/100 mg sponge | over 30% | 797 ± 48 μg/100 mg sponge | – | –
2 | NCCC[C@H](N)C(=O)O [Ornithine, ornithine] | – | – | – | – | – | – | – | – | over 45% | 854 ± 71 μg/100 mg sponge
